Where two headings read alike, the source gives them in different places.
Tests used:
[1] = molecular target: T1, full-length RORγt in Jurkat cells (Homo sapiens, UniProt P51449); test: RORγt 5×RORE Assay in Jurkat Cells (Assay 2); type: cell-based; conditions: 5×RORE luciferase reporter
T1 construct: transcriptional activity of the full-length RORγt in Jurkat cells; host or cells: Jurkat cells (ATCC TIB-152)
T1 sequence (P51449 1-497 isoform P51449-2): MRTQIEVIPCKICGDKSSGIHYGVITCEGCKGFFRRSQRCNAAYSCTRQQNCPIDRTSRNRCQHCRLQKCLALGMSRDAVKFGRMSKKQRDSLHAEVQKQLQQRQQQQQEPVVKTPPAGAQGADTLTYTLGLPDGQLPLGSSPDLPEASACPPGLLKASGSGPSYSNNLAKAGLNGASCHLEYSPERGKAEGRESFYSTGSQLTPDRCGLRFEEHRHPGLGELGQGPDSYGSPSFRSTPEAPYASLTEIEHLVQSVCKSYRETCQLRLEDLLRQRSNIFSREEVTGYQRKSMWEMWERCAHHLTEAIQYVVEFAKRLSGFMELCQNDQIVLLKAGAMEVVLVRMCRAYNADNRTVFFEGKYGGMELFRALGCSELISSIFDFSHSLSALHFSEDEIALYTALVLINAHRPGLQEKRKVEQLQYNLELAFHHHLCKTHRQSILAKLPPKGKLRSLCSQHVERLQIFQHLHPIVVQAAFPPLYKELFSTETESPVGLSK
Method: [formula] RORγt 5×RORE Assay in Jurkat Cells (Assay 2)
Compounds described herein were tested for RORγ inverse agonist activity in a cell-based, transcriptional activity assay. Secreted Nanoluc″ luciferase was used as a reporter for transcriptional activity of the full-length RORγt in Jurkat cells (ATCC, Cat. #TIB-152). A reporter plasmid was constructed by inserting 5 repeats of the ROR Response Element (RORE) […] (SEQ ID NO: 1) into a commercially available promoterless plasmid pNL1.3[secNluc] (Promega, Cat. #N1021) using KpnI and HindIII restriction sites. The expression plasmid for RORγt was purchased (Geneocopoeia, Cat. #EX-T6988-M02). Jurkat cells (30 million cells) were transfected with 11 μg of EX-T6988-MO2 and 26 μg of the reporter plasmid in OptiMEM® media using Lipofectamine LTX and Plus™ reagents (Life Technologies, Cat. #15338-100). After 5-6 hrs of incubation at 37° C./5% CO2, the cells were collected, resuspended in phenol-red free RPMI media containing 10% (v/v) delipidated FBS (Hyclone, Cat. #SH30855.03) and dispensed into 96-well clear bottom tissue culture plates (CoStar, Cat. #3603), at 80,000 cells per well. Tested compounds were added to the cells in the same media (final concentration of DMSO was 0.1% (v/v)), and the plates were incubated at 37° C./5% CO2 for 16-18 hrs. Luciferase activity in the conditioned supernatants was determined with NanoGlo® assay reagents (Promega, Cat. #N1130).

[2] = molecular target: T2, recombinant RORγ Ligand Binding Domain (LBD) protein (Homo sapiens, UniProt P51449); test: Radio-Ligand RORγ Binding Assay (Assay 1); conditions: radio-ligand competition, RORγ LBD, read-out: Avg ROR Bind Ki
T2 construct: 6×His; GST
T2 sequence (P51449 269-508 limits assumed): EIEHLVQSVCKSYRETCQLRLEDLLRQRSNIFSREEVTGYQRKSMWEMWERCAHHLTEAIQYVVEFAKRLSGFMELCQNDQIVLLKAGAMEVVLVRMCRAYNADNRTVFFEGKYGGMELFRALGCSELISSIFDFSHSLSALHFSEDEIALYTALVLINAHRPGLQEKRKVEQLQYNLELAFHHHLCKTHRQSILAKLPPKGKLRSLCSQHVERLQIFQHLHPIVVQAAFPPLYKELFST
In short: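 Cell-free SPA competition between compound and 25-hydroxy[26,27-^3H]-cholesterol for 6×His-GST-tagged RORγ LBD in 50 mM HEPES pH 7.4 with NaCl, MgCl2, glycerol, CHAPS, octylglucoside and DTT. Mix was shaken 20 min, held 10 min at rt, then read after poly-Lys YSi beads. IC50 came from a four-parameter fit, and Ki from radioligand KD.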

[3] = head without unit (Tables 15, 17), read-out: Avg ROR γt/5x IC50
[4] = head without unit (Tables 15, 17)
[5] = Table 20, read-out: Avg ROR γt/5x IC5
[6] = 25-hydroxy [26,27-3H]-cholesterol

IC50 [1, 3]	Ki [2, 4]	IC50 [1, 5]	Ki [2, 6]	IC50 ([1]; read-out: Avg ROR γt/5x IC50)	Compound
< 100 nM	< 100 nM	–	–	–	CCS(=O)(=O)c1ccc([C@H](CO)NC(=O)c2cc3ccnc(OC[C@H]4CC[C@H](C(F)(F)F)CC4)c3n2C)cc1 [Hy4-2, N-((R)-1-(4-(ethylsulfonyl)phenyl)-2-hydroxyethyl)-1-methyl-7-(((1r,4R)-4-(trifluoromethyl)cyclohexyl)methoxy)-1H-pyrrolo[2,3-c]pyridine-2-carboxamide]
–	–	> 1000 nM	< 100 nM	–	CCS(=O)(=O)c1ccc(CNC(=O)c2ccc3c(c2)CN(Cc2ccc(Cl)cc2)C[C@H]3C(C)C)cc1 (single isomer, unassigned) [Hy7-29.1]
–	–	100 to 1000 nM	< 100 nM	–	CCS(=O)(=O)c1ccc(CNC(=O)c2ccc3c(c2)CN(Cc2ccc(Cl)cc2)C[C@@H]3C(C)C)cc1 (single isomer, unassigned) [Hy7-29.2]
–	–	100 to 1000 nM	< 100 nM	–	CCOC(=O)c1cnc(N2Cc3cc(C(=O)NCc4ccc(S(=O)(=O)CC)cc4)ccc3[C@@H](C(C)C)C2)nc1C(F)(F)F (single isomer, unassigned) [Hy7-26.2]
–	–	< 100 nM	< 100 nM	–	CC[C@@H]1CN(c2ncc(-c3ncco3)cn2)Cc2cc(C(=O)N[C@@H](CO)c3ccc(S(=O)(=O)CC)cc3)ccc21 (single isomer, unassigned) [Hy7-33.1]
–	–	100 to 1000 nM	< 100 nM	–	CCS(=O)(=O)c1ccc(CNC(=O)c2ccc3c(c2)CN(c2ncc(C#N)cn2)C[C@H]3C(C)C)cc1 (single isomer, unassigned) [Hy7-2.1]
–	–	< 100 nM	< 100 nM	–	CCS(=O)(=O)c1ccc(CNC(=O)c2ccc3c(c2)CN(c2ncc(-c4ccc(=O)n(C)c4)cn2)C[C@H]3C(C)C)cc1 (single isomer, unassigned) [Hy7-24.1]
–	–	–	< 100 nM	100 to 1000 nM	CCS(=O)(=O)c1ccc(CNC(=O)c2sc3nc(C)nc(OCc4ccc(C(F)(F)F)cc4)c3c2C)cc1 [Hy6-1, N-(4-(ethylsulfonyl)benzyl)-2,5-dimethyl-4-((4-(trifluoromethyl)benzyl)oxy)thieno[2,3-d]pyrimidine-6-carboxamide]
–	–	> 1000 nM	< 100 nM	–	CCS(=O)(=O)c1ccc(CNC(=O)c2ccc3c(c2)CN(Cc2ccc(F)cc2)C[C@H]3C(C)C)cc1 (single isomer, unassigned) [Hy7-27.1]
–	–	–	< 100 nM	< 100 nM	CCS(=O)(=O)c1ccc(CNC(=O)c2ccc3c(C4CC4)n(C[C@H]4CC[C@H](C(F)(F)F)CC4)nc3c2)nc1 [Hy3A-3, 3-cyclopropyl-N-((5-(ethylsulfonyl)pyridin-2-yl)methyl)-2-(((1r,4r)-4-(trifluoromethyl)cyclohexyl)methyl)-2H-indazole-6-carboxamide]
–	–	100 to 1000 nM	< 100 nM	–	CC[C@H]1CN(c2ccc(C(F)(F)F)cc2)Cc2cc(C(=O)NCc3ccc(S(=O)(=O)CC)cc3)ccc21 (single isomer, unassigned) [Hy7-7.2]
–	–	100 to 1000 nM	< 100 nM	–	CC[C@H]1CN(c2ncc(C(F)(F)F)cc2C)Cc2cc(C(=O)N[C@@H](CO)c3ccc(S(=O)(=O)CC)cc3)ccc21 (single isomer, unassigned) [Hy7-22.2]
–	–	100 to 1000 nM	< 100 nM	–	CCS(=O)(=O)c1ccc(CNC(=O)c2ccc3c(c2)CN(Cc2ccc(C#N)cc2)C[C@H]3C(C)C)cc1 (single isomer, unassigned) [Hy7-28.1]
–	–	< 100 nM	< 100 nM	–	CCS(=O)(=O)c1ccc(CNC(=O)c2ccc3c(c2)CN(Cc2ccc(F)cc2)C[C@@H]3C(C)C)cc1 (single isomer, unassigned) [Hy7-27.2]
–	–	< 100 nM	< 100 nM	–	CCOC(=O)c1cnc(N2Cc3cc(C(=O)NCc4ccc(S(=O)(=O)CC)cc4)ccc3[C@H](C(C)C)C2)nc1 (single isomer, unassigned) [Hy7-16.1]

Continued, compound first:

Compound	IC50 [1, 3]	Ki [2, 4]	IC50 [1, 5]	Ki [2, 6]	IC50 ([1]; read-out: Avg ROR γt/5x IC50)
CCS(=O)(=O)c1ccc([C@H](CO)NC(=O)c2ccc3c(OC[C@H]4CC[C@H](C(F)(F)F)CC4)nc(C4CC4)cc3c2)cc1 [Hy1A-21, 3-cyclopropyl-N-((R)-1-(4-(ethylsulfonyl)phenyl)-2-hydroxyethyl)-1-(((1r,4R)-4-(trifluoromethyl)cyclohexyl)methoxy)isoquinoline-6-carboxamide]	–	–	–	< 100 nM	< 100 nM
CCS(=O)(=O)c1ccc(CNC(=O)c2ccc3c(c2)CCN(Cc2ccc(Cl)cc2)C3C(C)C)cc1 (racemic) [Hy2A-19, 2-(4-chlorobenzyl)-N-(4-(ethylsulfonyl)benzyl)-1-isopropyl-1,2,3,4-tetrahydroisoquinoline-6-carboxamide]	–	–	–	< 100 nM	< 100 nM
CCS(=O)(=O)c1ccc([C@H](CO)NC(=O)c2ccc3c(OC[C@H]4CC[C@H](C(F)(F)F)CC4)nc(C)cc3c2)nc1 (single isomer, unassigned) [Hy1A-22.1]	–	–	–	< 100 nM	< 100 nM
CCS(=O)(=O)c1ccc([C@@H](CO)NC(=O)c2ccc3c(OC[C@H]4CC[C@H](C(F)(F)F)CC4)nc(C)cc3c2)nc1 (single isomer, unassigned) [Hy1A-22.2]	–	–	–	< 100 nM	100 to 1000 nM
CCC1c2ccc(C(=O)NC(CO)c3ccc(S(=O)(=O)CC)cc3)cc2CCN1CC1CCC(C(F)(F)F)CC1 (single isomer, unassigned) [Hy2A-28.2]	–	–	–	< 100 nM	100 to 1000 nM
CCS(=O)(=O)c1ccc(CNC(=O)c2ccc3c(c2)CCN(Cc2ccc(Cl)cc2)C3C)cc1 (racemic) [Hy2A-11, 2-(4-chlorobenzyl)-N-(4-(ethylsulfonyl)benzyl)-1-methyl-1,2,3,4-tetrahydroisoquinoline-6-carboxamide]	–	–	–	< 100 nM	100 to 1000 nM
CCS(=O)(=O)c1ccc(CNC(=O)c2cnc3c(c2)CCN(Cc2ccc(Cl)cc2)C3C(C)C)cc1 (single isomer, unassigned) [Hy2B-8.1]	100 to 1000 nM	< 100 nM	–	–	–
CCS(=O)(=O)c1ccc([C@H](CO)NC(=O)c2ccc3c(OCC4CCN(CC(F)(F)F)CC4)nc(C)cc3c2)cc1 [Hy1A-19, (R)-N-(1-(4-(ethylsulfonyl)phenyl)-2-hydroxyethyl)-3-methyl-1-((1-(2,2,2-trifluoroethyl)piperidin-4-yl)methoxy)isoquinoline-6-carboxamide]	–	–	–	< 100 nM	100 to 1000 nM
CCS(=O)(=O)c1ccc(CNC(=O)c2ccc3c(OCc4ccc(C(F)(F)F)cc4)nccc3c2)cc1 [Hy1A-4, N-(4-(ethylsulfonyl)benzyl)-1-((4-(trifluoromethyl)benzyl)oxy)isoquinoline-6-carboxamide]	–	–	–	< 100 nM	100 to 1000 nM
CCS(=O)(=O)c1ccc(CNC(=O)c2ccc3c(c2)C(C)(C)CN(Cc2ccc(C#N)cc2)C3C(C)C)cc1 (single isomer, unassigned) [Hy2A-23.1]	–	–	–	< 100 nM	< 100 nM
CCS(=O)(=O)c1ccc(CNC(=O)c2cnc3c(c2)CCN(Cc2ccc(C#N)cc2)C3C(C)C)cc1 (single isomer, unassigned) [Hy2B-7.1]	100 to 1000 nM	< 100 nM	–	–	–
CCS(=O)(=O)c1ccc(CNC(=O)c2ccc3c(c2)CCN(Cc2ccc(Cl)cn2)C3C(C)C)cc1 (racemic) [Hy2A-21, 2-((5-chloropyridin-2-yl)methyl)-N-(4-(ethylsulfonyl)benzyl)-1-isopropyl-1,2,3,4-tetrahydroisoquinoline-6-carboxamide]	–	–	–	< 100 nM	< 100 nM

— patent US11008340B2, “Modulators of ROR-gamma” (Vitae Pharmaceuticals, LLC, priority 2015, dated 2021)
